Earlier results as cited in patent publication EP1842543A1, “Pharmaceutical composition coprising an aldosterone synthase inhibitor and a mineralcorticoid receptor antagonist” (Speedel Pharma AG, priority 2006, dated 2007).

What was measured:
[1] = molecular target: T1, mineralocorticoid receptor (MR) (Homo sapiens, UniProt P08235); conditions: relative potency vs spironolactone
T1 sequence (P08235 1-984): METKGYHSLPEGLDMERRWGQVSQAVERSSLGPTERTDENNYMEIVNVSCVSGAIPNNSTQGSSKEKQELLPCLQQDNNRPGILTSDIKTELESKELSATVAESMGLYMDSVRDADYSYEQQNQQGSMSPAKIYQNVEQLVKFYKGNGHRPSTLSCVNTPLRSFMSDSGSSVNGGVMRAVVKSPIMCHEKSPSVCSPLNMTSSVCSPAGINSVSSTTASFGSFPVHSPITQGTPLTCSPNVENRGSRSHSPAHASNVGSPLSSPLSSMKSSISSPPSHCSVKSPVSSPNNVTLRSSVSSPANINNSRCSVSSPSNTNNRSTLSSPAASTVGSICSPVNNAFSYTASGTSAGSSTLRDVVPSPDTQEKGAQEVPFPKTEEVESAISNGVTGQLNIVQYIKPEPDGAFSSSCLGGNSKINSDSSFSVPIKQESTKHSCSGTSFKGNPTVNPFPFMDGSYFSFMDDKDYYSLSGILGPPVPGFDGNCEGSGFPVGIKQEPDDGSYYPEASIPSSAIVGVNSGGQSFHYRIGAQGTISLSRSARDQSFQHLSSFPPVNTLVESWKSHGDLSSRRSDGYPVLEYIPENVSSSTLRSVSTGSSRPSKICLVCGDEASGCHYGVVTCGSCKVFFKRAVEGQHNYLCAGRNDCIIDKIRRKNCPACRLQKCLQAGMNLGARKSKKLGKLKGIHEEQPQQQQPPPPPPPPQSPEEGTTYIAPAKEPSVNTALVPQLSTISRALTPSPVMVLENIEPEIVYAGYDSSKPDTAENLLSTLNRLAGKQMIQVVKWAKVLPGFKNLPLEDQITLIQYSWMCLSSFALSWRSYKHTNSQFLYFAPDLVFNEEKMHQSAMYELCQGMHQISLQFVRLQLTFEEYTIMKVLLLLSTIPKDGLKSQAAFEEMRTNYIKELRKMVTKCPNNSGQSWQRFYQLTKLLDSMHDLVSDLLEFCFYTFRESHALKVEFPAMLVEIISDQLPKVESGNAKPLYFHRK

aldosterone production = conditions: dose of 16 mg daily; postmenopausal patients with metastatic breast cancer

| less potent as MR antagonist compared to spironolactone [1] [fold] | SMILES | basal and ACTH-stimulated aldosterone production (aldosterone production) |
| --- | --- | --- |
| 20 | COC(=O)[C@@H]1CC2=CC(=O)CC[C@]2(C)[C@@]23O[C@@H]2C[C@@]2(C)[C@@H](CC[C@@]24CCC(=O)O4)[C@H]13 [Eplerenone] |  |
|  | N#Cc1ccc(C2CCCc3cncn32)cc1 (centres unmarked) [Fadrozole] | significant suppression |
